# Measurements published in patent US20140199327A1, “METHODS OF PROMOTING DIFFERENTIATION” (Genentech, Inc., priority 2011, published 2014).
# Changes are numbered by the printed parent chain. Names and notes keep the numbering of the source. Where a SMILES comes first, the peptide text is derived from it. The star is where a group is joined. Cbz = O=C(OCc1ccccc1)*
# B1: endogenous ID2 (U2-OS, HOS and 293T cells) (other)
# chain: MKAFSPVRSVRKNSLSDHSLGISRSKTPVDDPMSLLYNMNDCYSKLKELVPSIPQNKKVSKMEILQHVIDYILDLQIALDSHPTIVSLHHQRPGQNQASRTPLTTLNTDISILSLQASEFPSELMSNDSKALCG
# notes: Endogenous protein of human cell lines
# B2: USP33-Flag (human USP33 with C-terminal Flag epitope) (protein)
# chain: MTGSNSHITILTLKVLPHFESLGKQEKIPNKMSAFRNHCPHLDSVGEITKEDLIQKSLGTCQDCKVQGPNLWACLENRCSYVGCGESQVDHSTIHSQETKHYLTVNLTTLRVWCYACSKEVFLDRKLGTQPSLPHVRQPHQIQENSVQDFKIPSNTTLKTPLVAVFDDLDIEADEEDELRARGLTGLKNIGNTCYMNAALQALSNCPPLTQFFLDCGGLARTDKKPAICKSYLKLMTELWHKSRPGSVVPTTLFQGIKTVNPTFRGYSQQDAQEFLRCLMDLLHEELKEQVMEVEEDPQTITTEETMEEDKSQSDVDFQSCESCSNSDRAENENGSRCFSEDNNETTMLIQDDENNSEMSKDWQKEKMCNKINKVNSEGEFDKDRDSISETVDLNNQETVKVQIHSRASEYITDVHSNDLSTPQILPSNEGVNPRLSASPPKSGNLWPGLAPPHKKAQSASPKRKKQHKKYRSVISDIFDGTIISSVQCLTCDRVSVTLETFQDLSLPIPGKEDLAKLHSSSHPTSIVKAGSCGEAYAPQGWIAFFMEYVKRFVVSCVPSWFWGPVVTLQDCLAAFFARDELKGDNMYSCEKCKKLRNGVKFCKVQNFPEILCIHLKRFRHELMFSTKISTHVSFPLEGLDLQPFLAKDSPAQIVTYDLLSVICHHGTASSGHYIAYCRNNLNNLWYEFDDQSVTEVSESTVQNAEAYVLFYRKSSEEAQKERRRISNLLNIMEPSLLQFYISRQWLNKFKTFAEPGPISNNDFLCIHGGVPPRKAGYIEDLVLMLPQNIWDNLYSRYGGGPAVNHLYICHTCQIEAEKIEKRRKTELEIFIRLNRAFQKEDSPATFYCISMQWFREWESFVKGKDGDPPGPIDNTKIAVTKCGNVMLRQGADSGQISEETWNFLQSIYGGGPEVILRPPVVHVDPDILQAEEKIEVETRSL
# B3: USP1-Flag (wild-type human USP1 with in-frame C-terminal Flag epitope) (protein)
# chain: MPGVIPSESNGLSRGSPSKKNRLSLKFFQKKETKRALDFTDSQENEEKASEYRASEIDQVVPAAQSSPINCEKRENLLPFVGLNNLGNTCYLNSILQVLYFCPGFKSGVKHLFNIISRKKEALKDEANQKDKGNCKEDSLASYELICSLQSLIISVEQLQASFLLNPEKYTDELATQPRRLLNTLRELNPMYEGYLQHDAQEVLQCILGNIQETCQLLKKEEVKNVAELPTKVEEIPHPKEEMNGINSIEMDSMRHSEDFKEKLPKGNGKRKSDTEFGNMKKKVKLSKEHQSLEENQRQTRSKRKATSDTLESPPKIIPKYISENESPRPSQKKSRVKINWLKSATKQPSILSKFCSLGKITTNQGVKGQSKENECDPEEDLGKCESDNTTNGCGLESPGNTVTPVNVNEVKPINKGEEQIGFELVEKLFQGQLVLRTRCLECESLTERREDFQDISVPVQEDELSKVEESSEISPEPKTEMKTLRWAISQFASVERIVGEDKYFCENCHHYTEAERSLLFDKMPEVITIHLKCFAASGLEFDCYGGGLSKINTPLLTPLKLSLEEWSTKPTNDSYGLFAVVMHSGITISSGHYTASVKVTDLNSLELDKGNFVVDQMCEIGKPEPLNEEEARGVVENYNDEEVSIRVGGNTQPSKVLNKKNVEAIGLLGGQKSKADYELYNKASNPDKVASTAFAENRNSETSDTTGTHESDRNKESSDQTGINISGFENKISYVVQSLKEYEGKWLLFDDSEVKVTEEKDFLNSLSPSTSPTSTPYLLFYKKL
# B4: USP1 C90S-Flag (catalytically inactive point mutant of human USP1 with C-terminal Flag epitope) (protein)
# chain: B3 chain with C90S
# Assays:
# proteasome [1] = test: ID2 abundance after proteasome inhibition in DT40 cells; format: cell-based, chicken
# Protocol: (§1) The human cell lines 143B, 293T, HOS, MG-63, SAOS-2, SJSA, and U2-OS (ATCC) were maintained in DMEM with 10% FBS (Sigma), 10 units/ml penicillin, and 10 μg/ml streptomycin (Gibco). Primary human osteoblasts (PromoCell) were expanded in primary osteoblast medium (PromoCell) and subcultured in DMEM supplemented as above. Primary human mesenchymal stem cells derived from normal bone marrow (Lonza) were subcultured in mesenchymal stem cell growth medium (Lonza). For osteogenic differentiation studies, hMSC were cultured in osteogenic differentiation medium (Lonza) supplemented with 100 ng/mL BMP-9 (R&D Systems). Primary human osteosarcomas were obtained from CytoMix, LLC, and from the Cooperative Human Tissue Network. […] Murine NIH-3T3 (ATCC) were cultured in supplemented DMEM. Wild-type and USP1^−/− DT-40 cells were a kind gift from K. Patel and were cultured in RPMI with 7% FBS and 3% chicken serum (Gibco). MG-132 (Calbiochem) was used at 10 μM. Cycloheximide (Sigma) was used at 25 μg/ml.
# proteasome [2] = test: ID2 abundance after proteasome inhibition in 293T cells; format: cell-based, human; details: MG-132 10 μM
# Protocol: as §1
# (§2) Rat monoclonal antibodies were raised against the C-terminal 100 amino-acids of human USP1 or WDR48 to produce the monoclonal USP1 antibody 5E10 and WDR48 antibody 9F10. […]
# proteasome [3] = test: ID protein abundance after proteasome inhibition in U2-OS cells; format: cell-based, human
# Protocol: as §1, §2
# USP1 = test: In vitro deubiquitination assay; format: biochemical, human; details: purified USP1 and ubiquitinated ID2 from 293T cells
# Protocol: 293T cells were transfected with USP1-Flag, USP1-[…]-Flag or ID2-Flag and HA-ubiquitin in separate batches. Ubiquitinated ID2-Flag was immunoprecipitated as described above from SDS-boiled lysates. USP1 and USP1 […] were immunoprecipitated with Flag M2-agarose beads following lysis in NP-40 lysis buffer. All samples were eluted from beads with 500 μg/ml 3×Flag peptide (Sigma). Samples were recombined in deubiquitination buffer (20 mM HEPES, 20 mM NaCl, 100 μg/ml BSA, 500 μM EDTA, 1 mM DTT, pH=8.3) and incubated for the indicated times at room temperature. Ubiquitin levels were assessed by immunoblot with HA antibodies.
# [4] = system: 143B osteosarcoma xenograft; test: 143B osteosarcoma xenograft model; format: in vivo, NCr nude mice
# Protocol: U2-OS, HOS, or SAOS cells were transfected three times with pRS shUSP1 or shCTL as follows: Cells were initially transfected with shUSP1 or shCTL, cultured for 2 days, and selected with puromycin for 3 days. Cells were retransfected with pMACS and shUSP1 or shCTL, cultured for 2 days, sorted by anti-H-2K^k bead sort (Miltenyi), cultured for 1 day, and serially re-transfected with shUSP1 or shCTL. Cells were cultured for an additional 3 days and osteoblast and hMSC markers were assessed by flow cytometry, real-time RT-PCR, and ALP assay. 143B cells were transduced with pTRIPZ-based inducible USP1 or control shRNA vectors and puromycin-resistant cells were subcultured.
# 8-week-old female NCr nude mice were injected subcutaneously in the right hind flank with 2.5×10^6 143 B shUSP1 cells in a volume of 100 μl of HBSS+matrigel. Doxycycline-treated mice were fed 1 mg/mL solutions of doxycycline in 5% sucrose water. Mice were monitored for tumor establishment and growth as well as body weight changes. When mice in a given group achieved a mean tumor volume of 2000 mm^3 and/or reached 78 days post-inoculation, mice were euthanized and dissected to confirm the presence or absence of tumor formation.
# [5] = target: T1, endogenous USP1 (U2-OS and HOS osteosarcoma cells) (human, UniProt O94782 1-785); test: immunoprecipitation of endogenous USP1 from U2-OS cells, blot for ID2; control with nonspecific IgG
# T1 construct: Endogenous protein immunoprecipitated from human cell lines
# T1 sequence: B3 chain
# [6] = target: T2, ID2 (co-transfected / co-expressed in 293T cells)
# T2 chain: B1 chain
# [7] = target: T3, ubiquitinated ID2-Flag (ID2 with C-terminal Flag epitope, modified with HA-ubiquitin, affinity purified from 293T cells)
# T3 chain: B1 chain
molecule,measurement,setting,value
CC(C)C[C@@H](C=O)NC(=O)[C@H](CC(C)C)NC(=O)[C@H](CC(C)C)NC(=O)OCc1ccccc1 [MG-132] (Cbz-Leu-Leu-Leu-aldehyde),ID2 abundance,proteasome [1]; USP1−/− DT40 cells,increased ID2
same,ID2 abundance,proteasome [1]; wild-type DT40 cells,not
same,endogenous ID2 abundance,proteasome [2],ID2 accumulates
same,ID expression after USP1 knockdown,proteasome [3]; U2-OS cells with USP1 knockdown,did restore ID expression
same,ID protein abundance,"proteasome [3]; U2-OS cells, MG-132 alone",did not by itself alter ID protein abundance
CCN1C(=O)C=CC1=O [N-ethylmaleimide],decrease in ID2 ubiquitination by USP1,USP1,sensitive
"doxycycline-induced USP1 shRNA: doxycycline-inducible pTRIPZ shRNA targeting human USP1, 5′-AGGCAATACTTGCTATCTTAAT-3′ (SEQ ID NO:12), Open Biosystems",xenograft tumors that achieved stasis and differentiation in situ,[4]; 143B USP1-deficient xenograft tumors,four of ten
same,ALP activity in xenografts,[4]; 143B xenografts,enhanced ALP activity
same,ID1 and ID2 in xenografts,"[4]; 143B xenografts, doxycycline",reduced ID1 and ID2
same,USP1 expression in xenografts,"[4]; 143B xenografts, doxycycline",suppressed USP1 expression
same,tumor growth,"[4]; 143B xenografts, doxycycline",reduced 143B tumor growth
same,osteogenic gene expression in xenografts,"[4]; 143B xenografts, RT-PCR, in situ hybridization","promoted OSTEONECTIN, RUNX2, SPP1/OSTEOPONTIN, OSTERIX, and BGLAP/OSTEOCALCIN expression"
B1,binding result,[5],binds
B2,deubiquitinating activity against ID2,[6],"unlike USP1, USP33 lacked deubiquitinating activity against ID2 (data not shown)"
B3,in vitro deubiquitination assay (HA-ubiquitin immunoblot of ID2-Flag),[7],Ubiquitinated ID2 was decreased by wild-type USP1 but not USP1 C90S
B4,in vitro deubiquitination assay (HA-ubiquitin immunoblot of ID2-Flag),[7],Ubiquitinated ID2 was decreased by wild-type USP1 but not USP1 C90S
